{"source": "patent US20260049077A1", "about": "“Neurotrophic Receptor Tyrosine Kinase (NTRK) Inhibitors and Methods Using Same” (Baylor College of Medicine, priority 2022, published 2026)", "assay_in_all_cases": "Promega K192 cell-based NanoBRET kinase occupancy assay", "key": {"[1]": {"target": "AURKB (Homo sapiens (Human), UniProt Q96GD4)", "sequence (Q96GD4 whole entry)": "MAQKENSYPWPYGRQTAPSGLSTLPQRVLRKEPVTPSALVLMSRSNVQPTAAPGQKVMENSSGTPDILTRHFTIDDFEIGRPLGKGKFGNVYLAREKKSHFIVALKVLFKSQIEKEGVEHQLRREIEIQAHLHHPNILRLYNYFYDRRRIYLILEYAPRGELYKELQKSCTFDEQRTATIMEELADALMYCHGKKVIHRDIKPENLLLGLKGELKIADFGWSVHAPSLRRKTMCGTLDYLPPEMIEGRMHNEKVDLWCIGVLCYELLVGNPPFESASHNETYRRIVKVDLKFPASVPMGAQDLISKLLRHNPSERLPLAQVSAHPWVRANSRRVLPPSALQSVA", "protocol": "(§1) Similarly, the selectivity of CDD-3031 for NTRK kinases was evaluated in a kinase occupancy assay (Promega K192 cell-based NanoBRET assay) using 192 kinases (Table 4)."}, "[2]": {"target": "AURKC (Homo sapiens (Human), UniProt Q9UQB9)", "sequence (Q9UQB9 whole entry)": "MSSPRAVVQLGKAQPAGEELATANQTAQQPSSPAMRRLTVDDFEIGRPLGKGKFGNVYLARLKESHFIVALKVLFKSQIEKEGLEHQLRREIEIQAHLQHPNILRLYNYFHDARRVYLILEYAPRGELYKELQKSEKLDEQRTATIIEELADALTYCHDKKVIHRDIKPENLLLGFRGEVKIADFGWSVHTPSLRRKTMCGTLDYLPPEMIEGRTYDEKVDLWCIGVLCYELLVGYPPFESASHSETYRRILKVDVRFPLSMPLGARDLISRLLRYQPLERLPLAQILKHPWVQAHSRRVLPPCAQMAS", "protocol": "as §1"}, "[3]": {"target": "CDKL1 (Homo sapiens (Human), UniProt Q00532)", "sequence (Q00532 whole entry)": "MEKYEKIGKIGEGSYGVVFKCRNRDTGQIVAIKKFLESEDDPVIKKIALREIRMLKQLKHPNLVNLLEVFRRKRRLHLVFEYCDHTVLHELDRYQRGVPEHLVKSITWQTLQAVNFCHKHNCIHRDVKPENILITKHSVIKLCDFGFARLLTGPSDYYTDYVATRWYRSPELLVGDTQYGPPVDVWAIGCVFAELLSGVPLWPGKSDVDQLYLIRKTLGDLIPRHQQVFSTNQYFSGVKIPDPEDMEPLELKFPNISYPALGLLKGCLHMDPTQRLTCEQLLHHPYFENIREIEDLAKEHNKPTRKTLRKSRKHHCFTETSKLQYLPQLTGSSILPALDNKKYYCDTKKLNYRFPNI", "protocol": "as §1"}, "[4]": {"target": "CLK1 (Homo sapiens (Human), UniProt P49759)", "protocol": "as §1"}, "[5]": {"target": "CSNK1A1L (Homo sapiens (Human), UniProt Q8N752)", "sequence (Q8N752 whole entry)": "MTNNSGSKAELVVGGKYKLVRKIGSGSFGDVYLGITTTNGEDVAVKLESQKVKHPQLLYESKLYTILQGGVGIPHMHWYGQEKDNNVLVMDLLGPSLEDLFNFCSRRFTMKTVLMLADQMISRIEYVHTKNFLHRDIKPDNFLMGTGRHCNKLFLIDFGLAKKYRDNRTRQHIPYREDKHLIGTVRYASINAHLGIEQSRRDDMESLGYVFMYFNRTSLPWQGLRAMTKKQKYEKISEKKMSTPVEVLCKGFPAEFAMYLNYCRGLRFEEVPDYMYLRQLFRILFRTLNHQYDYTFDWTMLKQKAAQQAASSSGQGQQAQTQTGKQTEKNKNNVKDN", "protocol": "as §1"}, "[6]": {"target": "FLT3 (Homo sapiens (Human), UniProt P36888)", "sequence (P36888 27-993)": "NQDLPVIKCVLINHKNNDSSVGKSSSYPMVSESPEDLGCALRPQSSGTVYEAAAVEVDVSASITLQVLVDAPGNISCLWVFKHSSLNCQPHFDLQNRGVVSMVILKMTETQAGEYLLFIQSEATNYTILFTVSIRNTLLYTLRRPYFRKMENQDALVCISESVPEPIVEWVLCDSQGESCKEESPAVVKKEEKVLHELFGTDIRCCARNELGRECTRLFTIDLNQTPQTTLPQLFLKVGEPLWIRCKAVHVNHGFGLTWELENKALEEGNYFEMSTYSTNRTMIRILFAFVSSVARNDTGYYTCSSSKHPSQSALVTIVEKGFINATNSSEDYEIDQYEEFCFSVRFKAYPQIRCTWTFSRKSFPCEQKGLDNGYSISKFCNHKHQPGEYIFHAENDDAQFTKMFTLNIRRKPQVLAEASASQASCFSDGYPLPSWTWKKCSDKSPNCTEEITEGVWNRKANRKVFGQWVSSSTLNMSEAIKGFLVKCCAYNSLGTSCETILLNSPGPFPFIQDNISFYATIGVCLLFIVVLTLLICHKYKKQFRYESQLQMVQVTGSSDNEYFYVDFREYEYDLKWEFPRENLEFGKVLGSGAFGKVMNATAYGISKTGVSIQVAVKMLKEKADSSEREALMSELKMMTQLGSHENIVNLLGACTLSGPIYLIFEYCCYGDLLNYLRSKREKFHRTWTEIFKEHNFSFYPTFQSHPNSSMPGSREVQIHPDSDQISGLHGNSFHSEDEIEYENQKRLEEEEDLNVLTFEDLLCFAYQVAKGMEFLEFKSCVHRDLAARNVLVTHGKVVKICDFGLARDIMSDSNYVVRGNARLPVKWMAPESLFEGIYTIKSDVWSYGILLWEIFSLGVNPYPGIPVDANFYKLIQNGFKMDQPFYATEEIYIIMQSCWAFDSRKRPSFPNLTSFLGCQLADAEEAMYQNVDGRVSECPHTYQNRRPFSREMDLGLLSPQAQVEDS", "protocol": "as §1"}, "[7]": {"target": "JAK2 (V617F) (Homo sapiens (Human), UniProt O60674, V617F)", "protocol": "as §1"}, "[8]": {"target": "MAP3K12 (Homo sapiens (Human), UniProt Q12852)", "protocol": "as §1"}, "[9]": {"target": "MUSK (Homo sapiens (Human), UniProt O15146)", "sequence (O15146 24-869)": "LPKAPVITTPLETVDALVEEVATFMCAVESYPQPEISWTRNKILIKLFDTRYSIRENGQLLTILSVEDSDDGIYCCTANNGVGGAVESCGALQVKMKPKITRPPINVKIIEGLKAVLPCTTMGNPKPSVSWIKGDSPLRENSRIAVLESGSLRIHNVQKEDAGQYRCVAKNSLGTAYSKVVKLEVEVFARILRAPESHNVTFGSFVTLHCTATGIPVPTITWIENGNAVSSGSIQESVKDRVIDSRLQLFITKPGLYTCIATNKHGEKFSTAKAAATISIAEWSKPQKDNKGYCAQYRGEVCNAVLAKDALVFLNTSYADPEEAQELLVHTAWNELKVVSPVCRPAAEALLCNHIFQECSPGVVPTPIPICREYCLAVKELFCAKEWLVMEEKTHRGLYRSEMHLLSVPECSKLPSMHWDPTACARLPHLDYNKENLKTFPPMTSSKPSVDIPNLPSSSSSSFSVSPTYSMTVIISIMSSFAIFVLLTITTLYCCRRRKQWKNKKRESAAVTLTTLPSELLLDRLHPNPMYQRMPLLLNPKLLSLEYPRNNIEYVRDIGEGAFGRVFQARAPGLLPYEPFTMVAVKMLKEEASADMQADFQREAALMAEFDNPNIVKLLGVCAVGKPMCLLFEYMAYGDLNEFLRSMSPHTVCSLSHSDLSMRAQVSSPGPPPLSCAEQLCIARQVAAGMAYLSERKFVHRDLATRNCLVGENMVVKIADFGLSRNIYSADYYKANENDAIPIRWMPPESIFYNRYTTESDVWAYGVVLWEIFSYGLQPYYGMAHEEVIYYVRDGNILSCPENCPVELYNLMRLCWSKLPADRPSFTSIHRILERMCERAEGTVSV", "protocol": "as §1"}, "[10]": {"target": "NTRK1 (Homo sapiens (Human), UniProt P04629)", "sequence (P04629 33-796)": "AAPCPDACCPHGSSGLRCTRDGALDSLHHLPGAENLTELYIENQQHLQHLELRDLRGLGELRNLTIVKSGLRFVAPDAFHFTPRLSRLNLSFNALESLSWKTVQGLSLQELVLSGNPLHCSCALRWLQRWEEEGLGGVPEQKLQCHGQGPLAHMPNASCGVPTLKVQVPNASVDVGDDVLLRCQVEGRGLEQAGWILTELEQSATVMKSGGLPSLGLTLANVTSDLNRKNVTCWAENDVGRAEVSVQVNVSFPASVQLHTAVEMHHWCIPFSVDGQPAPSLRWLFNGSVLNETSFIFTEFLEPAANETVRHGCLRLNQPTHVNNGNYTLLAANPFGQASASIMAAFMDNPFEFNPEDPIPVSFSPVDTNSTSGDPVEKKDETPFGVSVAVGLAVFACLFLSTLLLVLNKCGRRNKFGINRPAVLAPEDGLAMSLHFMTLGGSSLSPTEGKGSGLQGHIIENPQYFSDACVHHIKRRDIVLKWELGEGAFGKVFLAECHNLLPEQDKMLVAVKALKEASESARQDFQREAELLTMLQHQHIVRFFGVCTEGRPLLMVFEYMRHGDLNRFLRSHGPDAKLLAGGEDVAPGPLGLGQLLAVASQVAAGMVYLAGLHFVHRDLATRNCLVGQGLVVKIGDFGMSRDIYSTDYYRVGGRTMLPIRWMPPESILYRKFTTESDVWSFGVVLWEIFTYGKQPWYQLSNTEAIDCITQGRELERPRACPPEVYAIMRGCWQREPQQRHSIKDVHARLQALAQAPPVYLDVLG", "protocol": "as §1"}, "[11]": {"target": "STK11 (Homo sapiens (Human), UniProt Q15831)", "sequence (Q15831 whole entry)": "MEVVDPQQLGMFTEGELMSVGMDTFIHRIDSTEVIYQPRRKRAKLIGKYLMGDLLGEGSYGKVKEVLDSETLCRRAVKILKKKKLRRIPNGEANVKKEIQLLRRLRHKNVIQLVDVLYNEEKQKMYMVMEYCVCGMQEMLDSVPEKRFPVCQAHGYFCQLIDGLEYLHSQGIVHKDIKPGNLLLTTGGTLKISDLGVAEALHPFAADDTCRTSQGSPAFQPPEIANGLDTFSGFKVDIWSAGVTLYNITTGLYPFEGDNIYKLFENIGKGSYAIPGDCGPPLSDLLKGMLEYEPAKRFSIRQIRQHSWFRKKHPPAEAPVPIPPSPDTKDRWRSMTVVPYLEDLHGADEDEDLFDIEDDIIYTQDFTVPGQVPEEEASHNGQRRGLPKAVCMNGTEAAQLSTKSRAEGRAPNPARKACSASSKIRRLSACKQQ", "protocol": "as §1"}, "[12]": {"target": "STK36 (Homo sapiens (Human), UniProt Q9NRP7)", "protocol": "as §1"}, "[13]": {"target": "ULK2 (Homo sapiens (Human), UniProt Q8IYT8)", "protocol": "as §1"}, "[14]": {"target": "WEE1 (Homo sapiens (Human), UniProt P30291)", "sequence (P30291 whole entry)": "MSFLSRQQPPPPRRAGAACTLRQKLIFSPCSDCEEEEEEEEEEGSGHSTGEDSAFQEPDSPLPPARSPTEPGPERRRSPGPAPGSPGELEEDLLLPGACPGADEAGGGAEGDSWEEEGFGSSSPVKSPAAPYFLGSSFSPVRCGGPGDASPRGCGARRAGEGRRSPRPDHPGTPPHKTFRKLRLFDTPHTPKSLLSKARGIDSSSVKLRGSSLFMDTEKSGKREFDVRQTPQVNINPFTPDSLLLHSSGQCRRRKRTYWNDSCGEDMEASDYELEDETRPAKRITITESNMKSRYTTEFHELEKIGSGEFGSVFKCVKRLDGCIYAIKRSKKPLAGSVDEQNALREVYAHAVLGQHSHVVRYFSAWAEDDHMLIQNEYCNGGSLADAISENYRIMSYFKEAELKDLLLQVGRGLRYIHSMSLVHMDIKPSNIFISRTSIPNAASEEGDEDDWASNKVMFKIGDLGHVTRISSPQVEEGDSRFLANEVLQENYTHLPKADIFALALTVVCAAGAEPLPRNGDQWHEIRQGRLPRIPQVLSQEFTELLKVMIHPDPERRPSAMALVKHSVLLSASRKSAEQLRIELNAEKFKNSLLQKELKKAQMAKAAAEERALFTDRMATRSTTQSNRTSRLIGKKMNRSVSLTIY", "protocol": "as §1"}}, "note": "Where two headings read alike, the source gives them in different places.", "data": [{"smiles": "CN(Cc1ccn2ncc(C(N)=O)c2c1)C(=O)Nc1ccc(OC(F)(F)F)cc1", "note": "[CDD-3031, 5-((1-methyl-3-(4-(trifluoromethoxy)phenyl)ureido)methyl)pyrazolo[1,5-a]pyridine-3-carboxamide]", "values": [{"measurement": "receptor occupancy at 1 µM", "setting": "[1]; average, read-out: AURKB kinase occupancy, Average (%)", "value": 7.37, "unit": "%"}, {"measurement": "receptor occupancy at 1 µM", "setting": "[1]; replicate 1, read-out: AURKB kinase occupancy, Replicate 1 (%)", "value": 3.71, "unit": "%"}, {"measurement": "receptor occupancy at 1 µM", "setting": "[1]; replicate 2, read-out: AURKB kinase occupancy, Replicate 2 (%)", "value": 11, "unit": "%"}, {"measurement": "receptor occupancy at 1 µM", "setting": "[2]; average, read-out: AURKC kinase occupancy, Average (%)", "value": 4.09, "unit": "%"}, {"measurement": "receptor occupancy at 1 µM", "setting": "[2]; replicate 1, read-out: AURKC kinase occupancy, Replicate 1 (%)", "value": -7.48, "unit": "%"}, {"measurement": "receptor occupancy at 1 µM", "setting": "[2]; replicate 2, read-out: AURKC kinase occupancy, Replicate 2 (%)", "value": 15.7, "unit": "%"}, {"measurement": "receptor occupancy at 1 µM", "setting": "[3]; average, read-out: CDKL1 kinase occupancy, Average (%)", "value": 8.23, "unit": "%"}, {"measurement": "receptor occupancy at 1 µM", "setting": "[3]; replicate 1, read-out: CDKL1 kinase occupancy, Replicate 1 (%)", "value": 2.8, "unit": "%"}, {"measurement": "receptor occupancy at 1 µM", "setting": "[3]; replicate 2, read-out: CDKL1 kinase occupancy, Replicate 2 (%)", "value": 13.7, "unit": "%"}, {"measurement": "receptor occupancy at 1 µM", "setting": "[4]; average, read-out: CLK1 kinase occupancy, Average (%)", "value": 4.92, "unit": "%"}, {"measurement": "receptor occupancy at 1 µM", "setting": "[4]; replicate 1, read-out: CLK1 kinase occupancy, Replicate 1 (%)", "value": 3.65, "unit": "%"}, {"measurement": "receptor occupancy at 1 µM", "setting": "[4]; replicate 2, read-out: CLK1 kinase occupancy, Replicate 2 (%)", "value": 6.2, "unit": "%"}, {"measurement": "receptor occupancy at 1 µM", "setting": "[5]; average, read-out: CSNK1A1L kinase occupancy, Average (%)", "value": 4.58, "unit": "%"}, {"measurement": "receptor occupancy at 1 µM", "setting": "[5]; replicate 1, read-out: CSNK1A1L kinase occupancy, Replicate 1 (%)", "value": 9.24, "unit": "%"}, {"measurement": "receptor occupancy at 1 µM", "setting": "[5]; replicate 2, read-out: CSNK1A1L kinase occupancy, Replicate 2 (%)", "value": -0.08, "unit": "%"}, {"measurement": "receptor occupancy at 1 µM", "setting": "[6]; average, read-out: FLT3 kinase occupancy, Average (%)", "value": 7.12, "unit": "%"}, {"measurement": "receptor occupancy at 1 µM", "setting": "[6]; replicate 1, read-out: FLT3 kinase occupancy, Replicate 1 (%)", "value": -10.3, "unit": "%"}, {"measurement": "receptor occupancy at 1 µM", "setting": "[6]; replicate 2, read-out: FLT3 kinase occupancy, Replicate 2 (%)", "value": 24.6, "unit": "%"}, {"measurement": "receptor occupancy at 1 µM", "setting": "[7]; average, read-out: JAK2 (V617F) kinase occupancy, Average (%)", "value": 9.92, "unit": "%"}, {"measurement": "receptor occupancy at 1 µM", "setting": "[7]; replicate 1, read-out: JAK2 (V617F) kinase occupancy, Replicate 1 (%)", "value": 31.4, "unit": "%"}, {"measurement": "receptor occupancy at 1 µM", "setting": "[7]; replicate 2, read-out: JAK2 (V617F) kinase occupancy, Replicate 2 (%)", "value": -11.6, "unit": "%"}, {"measurement": "receptor occupancy at 1 µM", "setting": "[8]; average, read-out: MAP3K12 kinase occupancy, Average (%)", "value": 7.58, "unit": "%"}, {"measurement": "receptor occupancy at 1 µM", "setting": "[8]; replicate 1, read-out: MAP3K12 kinase occupancy, Replicate 1 (%)", "value": 21.2, "unit": "%"}, {"measurement": "receptor occupancy at 1 µM", "setting": "[8]; replicate 2, read-out: MAP3K12 kinase occupancy, Replicate 2 (%)", "value": -6.05, "unit": "%"}, {"measurement": "receptor occupancy at 1 µM", "setting": "[9]; average, read-out: MUSK kinase occupancy, Average (%)", "value": 19.8, "unit": "%"}, {"measurement": "receptor occupancy at 1 µM", "setting": "[9]; replicate 1, read-out: MUSK kinase occupancy, Replicate 1 (%)", "value": 17.5, "unit": "%"}, {"measurement": "receptor occupancy at 1 µM", "setting": "[9]; replicate 2, read-out: MUSK kinase occupancy, Replicate 2 (%)", "value": 22.2, "unit": "%"}, {"measurement": "receptor occupancy at 1 µM", "setting": "[10]; average, read-out: NTRK1 kinase occupancy, Average (%)", "value": 73.2, "unit": "%"}, {"measurement": "receptor occupancy at 1 µM", "setting": "[10]; replicate 1, read-out: NTRK1 kinase occupancy, Replicate 1 (%)", "value": 71.4, "unit": "%"}, {"measurement": "receptor occupancy at 1 µM", "setting": "[10]; replicate 2, read-out: NTRK1 kinase occupancy, Replicate 2 (%)", "value": 75, "unit": "%"}, {"measurement": "receptor occupancy at 1 µM", "setting": "[11]; average, read-out: STK11 kinase occupancy, Average (%)", "value": 5.85, "unit": "%"}, {"measurement": "receptor occupancy at 1 µM", "setting": "[11]; replicate 1, read-out: STK11 kinase occupancy, Replicate 1 (%)", "value": 6.96, "unit": "%"}, {"measurement": "receptor occupancy at 1 µM", "setting": "[11]; replicate 2, read-out: STK11 kinase occupancy, Replicate 2 (%)", "value": 4.74, "unit": "%"}, {"measurement": "receptor occupancy at 1 µM", "setting": "[12]; average, read-out: STK36 kinase occupancy, Average (%)", "value": 4.82, "unit": "%"}, {"measurement": "receptor occupancy at 1 µM", "setting": "[12]; replicate 1, read-out: STK36 kinase occupancy, Replicate 1 (%)", "value": -3.75, "unit": "%"}, {"measurement": "receptor occupancy at 1 µM", "setting": "[12]; replicate 2, read-out: STK36 kinase occupancy, Replicate 2 (%)", "value": 13.4, "unit": "%"}, {"measurement": "receptor occupancy at 1 µM", "setting": "[13]; average, read-out: ULK2 kinase occupancy, Average (%)", "value": 4.48, "unit": "%"}, {"measurement": "receptor occupancy at 1 µM", "setting": "[13]; replicate 1, read-out: ULK2 kinase occupancy, Replicate 1 (%)", "value": -5.12, "unit": "%"}, {"measurement": "receptor occupancy at 1 µM", "setting": "[13]; replicate 2, read-out: ULK2 kinase occupancy, Replicate 2 (%)", "value": 14.1, "unit": "%"}, {"measurement": "receptor occupancy at 1 µM", "setting": "[14]; average, read-out: WEE1 kinase occupancy, Average (%)", "value": 4.94, "unit": "%"}, {"measurement": "receptor occupancy at 1 µM", "setting": "[14]; replicate 1, read-out: WEE1 kinase occupancy, Replicate 1 (%)", "value": 9.23, "unit": "%"}, {"measurement": "receptor occupancy at 1 µM", "setting": "[14]; replicate 2, read-out: WEE1 kinase occupancy, Replicate 2 (%)", "value": 0.65, "unit": "%"}]}]}
